According to patent US12605350B2, “Composition for preventing, ameliorating, or treating disease caused by nitration of tyrosine in proteins comprising tyrosine as effective component” (INDUSTRY-ACADEMIC COOPERATION FOUNDATION GYEONGSANG …, priority 2020, dated 2026):
Entries after “also recorded” stand apart in the source; their conditions may differ.

Legend:
[1] = system: high-fat diet mouse model of type 2 diabetes; assay: insulin resistance test; assay type: in vivo; settings: HFD+L-Tyr vs HFD; 6 hours fasting, insulin 0.75 U/kg i.p., 15-90 minutes
Protocol: Twenty-seven C57BL/6 male mice (3-week old) were acclimated to the breeding condition for 1 week. […] Blood glucose was measured every week.
Insulin was diluted with physiological saline to prepare 0.15 U/ml solution. Blood glucose of a mouse, which has been subjected to fasting for 6 hours, was measured, and the animal was intraperitoneally injected with insulin (0.75 U/bodyweight (kg)). After the intraperitoneal injection of insulin, blood glucose was measured at time points of 15, 30, 60, and 90 minutes. Insulin injection amount(μl)=Bodyweight(g)×5 Formula (2)

NQO-1 = NQO-1 gene expression in kidney (quantitative real-time PCR), renal ischemia and reperfusion; assay type: in vivo, mouse; settings: L-tyrosine 100 mg/kg oral once a day for 4 days, 24 hours after ischemia and reperfusion, vs prepared solvent
Protocol: (§1) C57BL/6 male mouse (23 to 25 g, KOATECH, South Korea) was allowed to have free access to diets and water in sterile breeding room with constant temperature and humidity. The animals were divided into 3 test groups, i.e., 1) Control group (Sham), 2) Renal ischemia having treatment with prepared solvent and induced reperfusion group (CMC+IR), and 3) Renal ischemia having treatment with L-tyrosine and induced reperfusion group (L-Tyr+IR).
L-Tyrosine (100 mg/kg) was suspended in 0.5% CMC (carboxymethyl cellulose). The animal was orally administered, once a day for 4 days, with L-tyrosine or the prepared solvent CMC. Thirty minutes after the oral administration on Day 4, renal ischemia was caused. Specifically, the animal abdomen was cut and renal pedicles at both sides were clamped using a Muller atraumatic vascular clamp to cause renal ischemia. After 25 minutes of blood ischemia, the clamp was removed followed by reperfusion. The control group (Sham) received the same operational procedures as above except the ischemia using clamp. […]
According to Trizol method, total RNA was extracted from kidney tissues, and cDNA was synthesized by using Revert Aid Reverse Transcription System (ThermoFisher). Quantitative PCR was carried out with CFX Connect Real-Time PCR system (Bio-Rad) by using iQ SYBR Green Super mix (Bio-Rad). […]

nitrotyrosine protein = nitrotyrosine protein in kidney tissues (Western blot), renal ischemia and reperfusion; assay type: in vivo, mouse; settings: L-tyrosine 100 mg/kg oral for 4 days, 24 hours after ischemia and reperfusion
Protocol: as §1
L-Tyrosine (100 mg/kg) was suspended in 0.5% CMC (carboxymethyl cellulose). The animal was orally administered, once a day for 4 days, with L-tyrosine or the prepared solvent CMC. Thirty minutes after the oral administration on Day 4, renal ischemia was caused. Specifically, the animal abdomen was cut and renal pedicles at both sides were clamped using a Muller atraumatic vascular clamp to cause renal ischemia. After 25 minutes of blood ischemia, the clamp was removed followed by reperfusion. The control group (Sham) received the same operational procedures as above except the ischemia using clamp. Twenty-four hours after the reperfusion, the test animal was sacrificed, blood was collected from the heart, and the tissues were harvested.
Kidney tissues were homogenized with RIPA buffer solution. After centrifuge for 15 minutes at 16,000×g, 4° C., supernatant was collected and the protein quantification was carried out by BCA method. […]

[2] = target: T1, glutamine synthetase (GS) (Mus musculus, UniProt P15105); assay: in vitro GS activity of PFC tissue lysate treated with nitrogen peroxide (PN) and tyrosine; assay type: biochemical; settings: PFC tissue lysate (10 μg), 0.0031 to 0.45 mg/ml tyrosine, nitrogen peroxide (PN) 10 times the tissue lysate
T1 construct: PFC sample was weighed first, and, after lysis of the tissues by using Bullet homogenizer, subjected to centrifuge; from tissue; host or cells: mouse prefrontal cortex (PFC) lysate
T1 sequence (P15105 2-373 limits assumed): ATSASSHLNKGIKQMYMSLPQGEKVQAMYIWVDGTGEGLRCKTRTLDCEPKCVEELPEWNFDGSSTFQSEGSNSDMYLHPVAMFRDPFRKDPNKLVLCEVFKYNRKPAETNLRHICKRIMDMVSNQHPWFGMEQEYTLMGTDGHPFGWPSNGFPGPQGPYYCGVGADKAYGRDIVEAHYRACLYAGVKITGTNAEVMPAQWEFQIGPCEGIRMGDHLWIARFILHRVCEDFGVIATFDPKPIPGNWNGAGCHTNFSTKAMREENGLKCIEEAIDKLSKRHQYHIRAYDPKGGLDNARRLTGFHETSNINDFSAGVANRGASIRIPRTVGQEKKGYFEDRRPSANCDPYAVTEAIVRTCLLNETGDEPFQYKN
Protocol: Each of the blood and PFC sample was obtained from a mouse anesthetized with CO2 gas. Specifically, mouse blood was collected between 9 AM and 11 AM and stored in a K3EDTA-coated vacuum container. Plasma was obtained by centrifuge for 10 minutes at 4° C., 500×g. PFC sample was weighed first, and, after lysis of the tissues by using Bullet homogenizer, subjected to centrifuge for 20 minutes at 4° C., 12,000 rpm. Thus-obtained plasma and tissue lysate were kept at −80° C. until use.
10 μg of the lysate were admixed with […] of GS assay buffer solution (50 mM imidazole-HCl, pH 6.8, 50 mM L-glutamine, 25 mM hydroxylamine, 25 mM sodium arsenate, 2 mM MnCl2 and 0.16 mM ADP), followed by incubation for 1 hour at 37° C.
After the mixing, the reaction was terminated by adding 50 μl of stop buffer solution (90 mM FeCl3, 1.8 N HCl and 1.45% trichloroacetic acid), and then γ-glutamylhydroxamate synthesized from a reaction between glutamine and hydroxylamine as catalyzed by GS was measured at 560 nm using a microplate reader.
Moreover, after PFC (prefrontal cortex) tissue lysate (10 μg) was added and mixed with 0.0031 to 0.45 mg/ml tyrosine, incubated on ice for 10 minutes, and added with nitrogen peroxide (PN), in an amount that is 10 times the tissue lysate, followed by incubation for 10 minutes, in vitro GS activity was examined.

mouse PFC protein = assay: inhibitory effect on in vitro nitration of mouse PFC protein induced by ONOO−; assay type: biochemical; settings: mouse PFC protein treated with ONOO−
From the text: By treating mouse PFC protein with ONOO^−, protein nitration was induced and the inhibitory effect on nitration by tyrosine was examined.

[3] = system: glutamine synthetase (GS); assay: activity of glutamine synthetase (GS) in lysate of cerebral motor cortex, endothelin-1 stroke model; assay type: in vivo, mouse; settings: Tyr diet (905 mg/kg L-Tyr)
Protocol: The mouse was anesthetized by intraperitoneal injection of avertin as an anesthetic (0.5 ml/25 g of mouse bodyweight). Thereafter, endothelin-1 was injected (2 μg) to the cerebral motor cortex area (with bregma at the center, AP 1.5 mm, ML-1.5 mm, and DV 1.8 mm) by stereotaxic surgery. The injection was made at speed of 0.3 μl per minute. The needle was left for about 5 minutes after completing the injection so that endothelin-1 can be fully absorbed in animal tissues. After suturing the skin, the animal was allowed to recover in the original cage.
To a 96-well plate, 2 μl of lysate of cerebral motor cortex were added, and then adjusted to 50 μl by additionally adding 50 mM imidazole-HCl buffer solution (pH 6.8). After adding 50 μl of GS activity assay buffer solution (50 mM imidazole-HCl, pH 6.8, 25 mM L-glutamine, 12.5 mM hydroxylamine, 12.5 mM sodium arsenate, 1 mM MnCl2 and 0.08 mM ADP), the reaction was allowed to occur at 37° C. for 30 to 60 minutes.
Upon the completion of the reaction, γ-glutamylhydroxamate as a reference material was added to an empty well (0.391 to 25.0 mM). To the sample and reference material, 100 μl of reaction termination solution (90 mM FeCl3, 1.8 N HCl and 1.45% trichloroacetic acid) were added and absorbance at a wavelength of 560 nm was measured. Based on comparison with standard curve, GS activity was obtained for each sample. […]

[4] = system: mouse model of epileptic seizure which has been induced to have seizure by kainic acid; assay: epileptic seizure induced by kainic acid: seizure level, bodyweight, survival
Protocol: Kainic acid (KA, Abcam) was dissolved in physiological saline in hot water bath to prepare 9 mg/ml kainic acid solution. After intraperitoneal injection of kainic acid (30 mg/kg), severity level and symptoms of seizure were recorded for 2 hours. Severity level of seizure was decided based on the criteria given in the following Table 2, and also the bodyweight was measured before and 24 hours after the injection of kainic acid, and then the results are compared to each other.

Structure (SMILES) | blood glucose amount, insulin resistance test [1] | expression of NQO-1 gene in kidney (NQO-1) | amount of nitrotyrosine protein in kidney tissues (nitrotyrosine protein) | in vitro GS activity [2] | inhibitory effect on nitration of proteins (mouse PFC protein) | GS activity of the tissues (cerebral motor cortex) [3] | severity of seizure ([4]; ICR mouse, L-Tyr diet 181, 543 or 905 mg/kg for 1 week, kainic acid 30 mg/kg i.p., 2 hours) | mouse death ([4]; depending on intake amount of tyrosine, kainic acid 30 mg/kg i.p.) | survival ([4]; diet with feeds containing tyrosine 900 mg/kg (actual intake amount))
N[C@@H](Cc1ccc(O)cc1)C(=O)O [L-tyrosine] | statistically significant decrease in blood glucose amount | statistically significant increase in the expression of NQO-1 gene | significantly reduced |  |  |  |  |  | 
N[C@@H](Cc1ccc(O)cc1)C(=O)O [tyrosine] |  |  |  | statistically significant increase in GS activity; also recorded: higher GS activity is obtained in accordance with an increase in the tyrosine concentration | nitration of the proteins is inhibited in tyrosine concentration dependent manner | the activity can be maintained | severity of seizure is gradually reduced depending on tyrosine amount | improvement in mouse death was also observed depending on intake amount of tyrosine | all of the mice have survived
